Test system: NF-κB
Assay: NF-κB expression in intestine (immunohistochemistry and Western blot) after X-ray irradiation
Assay type: in vivo, Sprague Dawley (SD) rats
Conditions: SD rats, 8 Gy abdominal X-ray
Text: Sixty adult male Sprague Dawley (SD) rats weighing 220–250 g were included in our study. Rats were subjected to 1 week of preliminary conditioning, during which time they received standard pellet rat chow and water ad libitum. They were housed in a temperature-and humidity-controlled environment, two animals per cage, with a 12-h light/12-h dark cycle. The Principles of Laboratory Animal Care (NIH Publication 85e23, revised 1996) were followed. Animal study protocols were approved by the Ethics Committee of the Fourth Military Medical University. The experiment was carried out at the Department of Pharmacy, Tangdu Hospital, Fourth Military Medical University.
X-ray irradiation was performed using a linear accelerator (Siemens primask) adjusted to provide X-ray irradiation, and carried out at the Department of Radiology and Oncology at the Tangdu Hospital. All of the animals were anesthetized with an intramuscular injection of pentobarbital sodium (100 mg/kg) and subjected to a single dose of 8 Gy abdominal X-radiation. The dose was delivered at a rate of 400 monitor units/min (1100 rad, 116.5 cGy/min, 100 cm source–skin distance) using a conventional radiation source, while the other parts of the body were carefully shielded.
Rats were randomized into six groups (Groups A–F). […]
The expression of NF-κB was analyzed by Western blotting. […]

Substance: Mono-PEG-hGLP-2: human GLP-2 peptide conjugated to one 5 kDa mPEG chain by reaction with mPEG5k-SPA
- NF-κB staining in intestine versus X-ray-alone-treated rats (3, 10, 30 μg i.p. 5 min before irradiation, immunohistological staining): decreased NF-κB staining in a dose-dependent manner
- NF-κB expression in intestine versus model (moderate to high doses (10, 30 μg i.p.) before irradiation, P < 0.01): significantly inhibited NF-κB expression

From paper PMC6373673, “Purified PEGylated human glucagon-like peptide-2 reduces the severity of irradiation-induced acute radiation enteritis in rats” (Journal of Radiation Research, 2018)
